Reference: patent publication US20070212355A1 (priority 2005, published 2007)

Key:
[1] = CD spectra secondary structure of peptides; assay type: physicochemical; conditions: 0.2 mg/mL in PBS, 25° C.
Method: The secondary structures of tested peptides were determined using 0.2 mg/mL peptide solutions in PBS. Briefly, CD spectra were collected in triplicate at 1 nm intervals at 25° C. in 0.1 cm path length cell. Secondary structures were determined by fitting of the CD spectra using CD spectra software (CD Spectra Deconvolution software 2.1). All tested peptides contained peaks corresponding to the presence of alpha helices.

[2] = humans; cited from earlier work
[3] = SEC-SLS self-association of peptides in PBS (pH 7.5); assay type: physicochemical
Method: The self-association poses a challenge to the development and manufacturing of a homogeneous therapeutic.
Solution molecular weight of the peptides was measured by SEC-SLS. Briefly, peptide solutions in PBS (pH 7.5) at 0.4 to 2.0 mg/mL were fractionated over a Superdex peptide column (Amersham Pharmacia). The eluted peaks were monitored by static light scattering at 690 nm and solution molecular weight was determined at UV 280 nm using the Astra software package (Wyatt Inc.).

mutated human GLP-2R = target: T1, mutated human GLP-2R (Homo sapiens, UniProt O95838, E512D/G511A/L513V); test: cAMP expression assay in HEK 293E clonal cell line expressing mutated human GLP-2R; assay type: cell-based; conditions: assay set-up, vs control peptide
T1 construct: expressed in transfected cells; host or cells: HEK 293E clonal cell line
T1 sequence (O95838 1-553 G511A/E512D/L513V): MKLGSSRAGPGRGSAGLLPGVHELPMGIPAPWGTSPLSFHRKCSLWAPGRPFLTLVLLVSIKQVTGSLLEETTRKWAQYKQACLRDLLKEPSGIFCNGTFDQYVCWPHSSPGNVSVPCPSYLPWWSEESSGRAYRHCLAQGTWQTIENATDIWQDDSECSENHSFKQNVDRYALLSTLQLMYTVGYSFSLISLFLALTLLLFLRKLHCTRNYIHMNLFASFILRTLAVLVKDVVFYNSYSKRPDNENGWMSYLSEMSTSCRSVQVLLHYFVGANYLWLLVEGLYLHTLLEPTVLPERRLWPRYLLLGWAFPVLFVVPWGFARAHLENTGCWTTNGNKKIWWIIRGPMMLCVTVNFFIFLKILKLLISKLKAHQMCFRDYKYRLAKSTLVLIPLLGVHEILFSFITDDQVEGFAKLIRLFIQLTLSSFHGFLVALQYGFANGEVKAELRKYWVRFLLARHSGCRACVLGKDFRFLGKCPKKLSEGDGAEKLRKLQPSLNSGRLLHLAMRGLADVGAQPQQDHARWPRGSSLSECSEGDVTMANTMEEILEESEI
Source text: To achieve this goal, a clonal cell line expressing a mutated human GLP-2R was generated by transfecting HEK 293E cells. The mutated human GLP-2R differs from the wild-type human GLP-2R (SEQ ID NO: 35) at three amino acid positions within the C-terminal intracellular region (SEQ ID NO: 36).
The cAMP expression was quantitated using the cAMP Direct Screen System (Cat. No. CSD 200, Applied Biosystems, Bedford, Mass.).
This assay was based on the cAMP Direct Screen System from Applied Biosystems utilizing a cell line expressing mutated huGLP-2R in HEK 293E cells. Peptide at concentrations ranging from 0.01 nM to 1.0 uM in PBS with 0.5% BSA was added to ˜50,000 cells suspended in 96-well plates. After a 30-minute incubation at 37° C., Lysis Buffer followed by luminescence reagents (Applied Biosystems) was added according to the manufacturers' procedures (Applied Biosystems Luminescence protocol: cAMP-Screen Direct System). Luminescence was quantitated using a TopCount liquid scintillation analyzer (PerkinElmer), and data was processed using Softmax software (Molecular Devices Corporation).

[4] = Helical propensity analysis using TFE (CD at 222 nm); assay type: physicochemical; conditions: 0.2 mg/mL in PBS (pH 7.5), MRE at 222 nm
Method: In addition, trifluoroethanol (TFE) is known to induce helix formation in peptides (Soennichsen et al., Biochemistry 31: 8791 (1992)). Accordingly, helical propensity analysis using TFE was performed. Briefly, tested peptides were diluted to 0.2 mg/mL in PBS (pH 7.5) containing 0, 1, 5, 15, 33 or 50% TFE. CD spectra were collected and CD plots were generated after data averaging, buffer subtraction and curve smoothing. Helical propensity values were obtained from mean residue ellipticity (MRE) at 222 nm versus % TFE plots. The concentration of TFE that effected a 50% transformation of the CD spectrum at 222 nm was used as a measure of helical propensity.

[5] = SEC-SLS analysis of mimetibodies (monomer/dimer); assay type: physicochemical; conditions: purified from HEK 293E/HEK 293 expression
mice [6] = test: Upper gastrointestinal transit, FITC-dextran method, normal mice; assay type: in vivo; conditions: for upper gastrointestinal transit (FITC-dextran): single 4 mg/kg dose 4 days prior, FIG. 4, 4 mg/kg
Method: On the day of study, upper gastrointestinal transit was measured using the FITC-dextran method. This method provides both, a measure of gastrointestinal transit and a readout of the pattern of distribution of the test meal along the gastrointestinal tract. Mice were fed a test meal of […] of FITC-dextran solution (5 mg/ml of 70,000 molecular weight dextran conjugated to fluorescein-isothiocyanate in 0.5% methylcellulose/deionized water) administered intragastrically by an 18 gauge curved feeding tube. Following oral administration of the FITC-dextran test meal, mice were returned to their home cages. It was shown that a 30 min test period was the optimum duration for detecting accelerated transit, while a 45 min test period was optimum for detecting delayed transit. Following the appropriate test period, mice were sacrificed by carbon dioxide exposure. The entire gastrointestinal tract from the lower esophageal sphincter to the terminal colon was removed. The bowel segments were opened along the mesenteric border. The tissue and luminal contents of the stomach, 10 equal segments of small intestine, the cecum, and 3 equal segments of colon were placed in individual Eppendorf tubes containing 1 ml of PBS. The tissue was vigorously mixed on a table-top vortex, and solid materials were pelleted by centrifugation. Aliquots of the cleared supernatant were read in duplicate on a 96-well fluorescence plate reader to quantify the magnitude of the fluorescent signal in each segment of bowel. These values were used to calculate the Geometric Center (GC), which is defined as the weighted average distribution of the fluorescent signal along the gastrointestinal tract: GC=Σ(% of total fluorescent signal per segment×segment number)/100. Higher values represent faster rates of transit on scale of 1 to 15. […] The mimetibody-induced shift in the distribution pattern of FITC-dextran is shown in the upper panel. […] The GC is calculated in the lower panel for statistical comparison.

[7] = Pharmacokinetics in cynomolgus monkeys, TRF assay; assay type: in vivo; conditions: 1 mg/kg intravenously
Source text: (§1) A time resolved fluorescence (TRF) assay was used to measure active mimetibody. Active mimetibody reflects the intact N-terminus of the peptide still attached to the Fc region of the mimetibody.

CD1 mice = test: Mucosal wet weight of small intestine after 10 daily subcutaneous injections; assay type: in vivo
Source text: Afterwards, the mice were euthanized and the small intestines were removed, flushed with saline, and processed as described below.
(§2) Specifically, 4 cm sections were harvested: (1) immediately distal to the pylorus (duodenum), (2) starting 2 cm distal of the ligament of Treitz (jejunum), and (3) immediately proximal to the cecum (ileum). The remaining small intestine from ˜6 cm distal of the ligament of Treitz to 4 cm proximal to the cecum was used to prepare mucosal scrapings. From the proximal and distal ends of the remnant, an equal distance was removed until a 15 cm section remained, the remnant was cut longitudinally, rinsed, and the mucosal layer was removed using the short end of a glass microscope slide. The wet weight of the intact intestinal segments and mucosa was measured.

mice [8] = test: Pharmacodynamics: dosing-regimen study, intestinal weights, 11 days; assay type: in vivo
Source text: as §2
The duration of the study was 11 days and tissue was processed as described in Example 4.

[9] = Pharmacokinetics in CD1 mice, TRF assay of active mimetibody; assay type: in vivo
Source text: Blood was collected at different time points into citrate buffer containing protease inhibitors to minimize the possibility of ex vivo degradation and plasma was separated by centrifugation.
as §1

CC[C@H](C)[C@H](NC(=O)[C@H](Cc1ccccc1)NC(=O)[C@H](CC(=O)O)NC(=O)[C@H](CCCNC(=N)N)NC(=O)[C@H](C)NC(=O)[C@H](C)NC(=O)[C@H](CC(C)C)NC(=O)[C@H](CC(N)=O)NC(=O)[C@H](CC(=O)O)NC(=O)[C@H](CC(C)C)NC(=O)[C@@H](NC(=O)[C@@H](NC(=O)[C@H](CC(N)=O)NC(=O)[C@H](CCSC)NC(=O)[C@H](CCC(=O)O)NC(=O)[C@H](CC(=O)O)NC(=O)[C@H](CO)NC(=O)[C@H](Cc1ccccc1)NC(=O)[C@H](CO)NC(=O)CNC(=O)[C@H](CC(=O)O)NC(=O)[C@H](C)NC(=O)[C@@H](N)Cc1c[nH]cn1)[C@@H](C)O)[C@@H](C)CC)C(=O)N[C@@H](CC(N)=O)C(=O)N[C@@H](Cc1c[nH]c2ccccc12)C(=O)N[C@@H](CC(C)C)C(=O)N[C@H](C(=O)N[C@@H](CCC(N)=O)C(=O)N[C@H](C(=O)N[C@@H](CCCCN)C(=O)N[C@H](C(=O)N[C@H](C(=O)N[C@@H](CC(=O)O)C(=O)O)[C@@H](C)O)[C@@H](C)CC)[C@@H](C)O)[C@@H](C)CC [SEQ ID NO: 1]
Helix (percentage of helical structure) [1]: 19.6%
Random coil (percentage) [1]: 37.9%
reported half-life [2]: 7.2 ± 2 min
self-association state ([3]; 0.4 mg/mL): monomer
SEC-SLS elution / self-association state ([3]; 1 mg/ml): overlapping dimer and monomer peaks
proportion of monomers ([3]; 2 mg/mL): about 20%
proportion of reversibly self-associated dimer ([3]; 2 mg/mL): about 80%
stimulation of cAMP expression (mutated human GLP-2R): stimulated cAMP expression
TFE required for helical transformation (helical propensity) [4]: ~16 % TFE

SEQ ID NO: 5: A2G GLP-2 IgG4 mimetibody; core HGDGSFSDEMNTILDNLAARDFINWLIQTKITDGSGGGSGTLVTVSSESKYGPPCPPCP
SEC-SLS association state of mimetibody [5]: dimer
upper gastrointestinal transit (FITC-dextran) (mice [6]; listed as A2G GLP-2 mimetibody): significant acceleration of intestinal transit
upper gastrointestinal transit (FITC-dextran) (mice [6]; listed as GLP-2 mimetibody): acceleration of upper gastrointestinal transit
Geometric Center (GC) of FITC-dextran (mice [6]; single injection 4 days prior, 30 minute test, scale 1 to 15, normal mice GC=6): 7.5
calculated half-life [7]: 115 h
increase in mucosal wet weight vs control mimetibody (CD1 mice; 0.8 mg/kg (0.26 nmole) daily s.c. 10 days, p<0.0001): statistically significant
increase in mucosal wet weight vs control mimetibody (CD1 mice; 8 mg/kg (2.6 nmole) daily s.c. 10 days, p<0.0004): statistically significant
mucosal wet weight (15 cm segment between jejunum and ileum), dose response (CD1 mice; daily s.c. 10 days, female CD1 mice, FIG. 2): dose dependent increase
effective in vivo dose lower than that of A2G GLP-2 peptide (molar basis) (CD1 mice; mucosal weight model): 50 fold
mucosal weight difference to control mimetibody (mice [8]; 4 mg/kg every day or every other day, 11 day study, compared with once per week): more pronounced
mucosal weight compared to control mimetibody (mice [8]; 4 mg/kg once per week, 11 day study): significantly increased mucosal weight
duodenum and jejunum section wet weight over control mimetibody (mice [8]; 4 mg/kg, all regimens except for the single dose experiment): significant increase in weight
calculated half-life ([9]; CD1 mice, 3 mg/kg intravenously or subcutaneously, TRF): 26.5 h
half-life relative to GLP-2 peptide ([9]; mimetibody in mice vs reported GLP-2 peptide in humans): more than 200 fold
